# Assay results: patent US9339508B2, “Use of 3-methoxy-pregnenolone for the preparation of a drug for treating a traumatic brain injury” (MAPREG, priority 2003, dated 2016)
# Key:
# [1] = biological target: T1, microtubule-associated MAP2 (Rattus norvegicus, UniProt P15146); assay: Immunolabeling of microtubule-associated MAP2 in PC12 cells; type: cell-based; conditions: 20 μM, NGF 10 ng/ml
# T1 construct: endogenous in cells; host or cells: PC12 cells
# Source text: They were fixed and exposed to anti-MAP2 antibodies that reveal microtubule-associated MAP2 esclusively.
# To rest the effect of selected molecules on neuritic growth, we first used the PC12 line, which has long been employed in neurobiological research. In the presence of NOF (nerve growth factor), the cells of this line, which arise from a rat pheochromocytoma, form neuritic extensions containing MAP-associated microtubules. The growth of these elongations is stimulated by the addition of PREG. […] The screening of other natural or synthetic steroids made it possible to select several molecules presenting greater effects than that of PRIG (FIG. 2). In particular, the addition of molecule 43B, which can be synthesized easily from PRIG, caused a spectacular increase (reaching as high as 500%) in the length of neurites formed in the presence of NOF (FIG. 3). This neurite growth accompanies the stimulation by 43-3 of the association of MAP2 to the microtubules (FIG. 4).
# [2] = biological target: purified tubulin and MAP2 (Homo sapiens, UniProt P11137); assay: MAP2-induced polymerization of microtubules in vitro (optical density at 345 nm); type: biochemical
# Procedure: Purified MAP2 and tubulin are mixed in the presence of GTP at 4° C. in a spectrophotometer cuvette. Polymerization is induced by heating at 37° C. and is followed by the increase in optical density (OD) which indicates the quantity of polymers formed.
# This in vitro test measures the effect of molecules on the MAP2-induced polymerization of microtubules. This polymerization occurs when MAP2 proteins and tubulin are mixed at adequate concentrations in the presence of GTP. It is accompanied by an increase in optical density measured at 345 nm for 15 to 30 minutes with a UNICON spectrophotometer thermostated at 37° C. (FIG. 1).
# Activity is measured by the increase in optical density at 345 nm of a mixture of purified tubulin and MAP2, incubated at 37° C. in the presence of GTP.
# [3] = test system: rats subjected to spinal cord compression; assay: Spinal cord compression model, BBB score; type: in vivo, rat; conditions: 12 mg/kg/day subcutaneous for 2 weeks; as of post-operation day 7
# Procedure: FIG. 7: Effect of molecule 43B on locomotor recovery following spinal cord compression in rats. Animal locomotion was evaluated in a blind format during the 1-28 day post-operative period using the BBB score which evaluates the degree of paralysis (higher values correspond to better recovery). Statistical significance: * indicates p<0.001; ** indicates p<0.0001.
# To determine the neuroprotective effects of the molecules tested, a spinal cord compression model is used. This model involves the total paralysis of the animals in the first few days following the operation. This period of paralysis is followed of a phase of approximately three weeks during which the animals partially recover their motor function. The study of this recovery using a simple and precise functional test based on observation of the animals (the BBB score) makes it possible to study the speed and the degree of recovery of the animals, with and without treatment.
# Two groups of rats were subjected to spinal cord compression. Then, daily for 2 weeks, the animals received a subcutaneous injection containing either sesame oil alone (control group, n=20), or sesame oil containing molecule 43B (43B group, n=20; 12 mg/kg/day). The first injection was given 5 minutes after spinal cord compression. Locomotion of the animals, using BBB scores, was evaluated in a blind format on post-operation days 1, 4, 7, 14, 21, and 28. […]
# GFAP = GFAP immunohistochemistry after Lateral Fluid Percussion (LFP); type: in vivo, rat
# Source text: After anesthesia induction, the animal was placed on a stereotaxic frame. To expose the dura mater, craniotomy (diameter 5 mm) was under the left parietal cortex (−3.6 mm from Bregma, −3.0 mm from midline). A female Luer-Lock was placed over the craniotomy and was secured to the parietal bone with dental cement. The Luer-Lock was then filled with isotonic saline to create an interface with the dura meter.
# Trauma was induced by a fluid percussion device (Custom Design and Manufacturing, United. Kingdom) (Besson et al., 2003) it is a cylindrical tank (60 cm long), with a piston on one side, over which a hammer exercises a constraint, and a male Luer-Lock on the other side. […] The amplitude of each shock wave was measured via a pressure transducer connected to the terminal portion of the device. The pressure signal was recorded on an oscilloscope. […]
# After mounting on Superfrost slides, frozen sections were dried for 90 minutes at room temperature and stored at −80° C. until use. […] Immunostaining was quantitatively assessed by optical density measurements directly from the section image (Image J). […]
# GFAP expression was measured by immunohistochemistry at day 35 post-trauma in injured and uninjured cortex, thalamus and hippocampus of LFP traumatized, rats treated with vehicle (sesame oil), or 3-methoxy-PREG (MAP4343) at 10 mg/kg or 20 mg/kg, with first injection at 2 hours post-trauma.
# [4] = 40 μM, compared to solvent alone
# Chain of purified tubulin and MAP2 (P11137 whole entry): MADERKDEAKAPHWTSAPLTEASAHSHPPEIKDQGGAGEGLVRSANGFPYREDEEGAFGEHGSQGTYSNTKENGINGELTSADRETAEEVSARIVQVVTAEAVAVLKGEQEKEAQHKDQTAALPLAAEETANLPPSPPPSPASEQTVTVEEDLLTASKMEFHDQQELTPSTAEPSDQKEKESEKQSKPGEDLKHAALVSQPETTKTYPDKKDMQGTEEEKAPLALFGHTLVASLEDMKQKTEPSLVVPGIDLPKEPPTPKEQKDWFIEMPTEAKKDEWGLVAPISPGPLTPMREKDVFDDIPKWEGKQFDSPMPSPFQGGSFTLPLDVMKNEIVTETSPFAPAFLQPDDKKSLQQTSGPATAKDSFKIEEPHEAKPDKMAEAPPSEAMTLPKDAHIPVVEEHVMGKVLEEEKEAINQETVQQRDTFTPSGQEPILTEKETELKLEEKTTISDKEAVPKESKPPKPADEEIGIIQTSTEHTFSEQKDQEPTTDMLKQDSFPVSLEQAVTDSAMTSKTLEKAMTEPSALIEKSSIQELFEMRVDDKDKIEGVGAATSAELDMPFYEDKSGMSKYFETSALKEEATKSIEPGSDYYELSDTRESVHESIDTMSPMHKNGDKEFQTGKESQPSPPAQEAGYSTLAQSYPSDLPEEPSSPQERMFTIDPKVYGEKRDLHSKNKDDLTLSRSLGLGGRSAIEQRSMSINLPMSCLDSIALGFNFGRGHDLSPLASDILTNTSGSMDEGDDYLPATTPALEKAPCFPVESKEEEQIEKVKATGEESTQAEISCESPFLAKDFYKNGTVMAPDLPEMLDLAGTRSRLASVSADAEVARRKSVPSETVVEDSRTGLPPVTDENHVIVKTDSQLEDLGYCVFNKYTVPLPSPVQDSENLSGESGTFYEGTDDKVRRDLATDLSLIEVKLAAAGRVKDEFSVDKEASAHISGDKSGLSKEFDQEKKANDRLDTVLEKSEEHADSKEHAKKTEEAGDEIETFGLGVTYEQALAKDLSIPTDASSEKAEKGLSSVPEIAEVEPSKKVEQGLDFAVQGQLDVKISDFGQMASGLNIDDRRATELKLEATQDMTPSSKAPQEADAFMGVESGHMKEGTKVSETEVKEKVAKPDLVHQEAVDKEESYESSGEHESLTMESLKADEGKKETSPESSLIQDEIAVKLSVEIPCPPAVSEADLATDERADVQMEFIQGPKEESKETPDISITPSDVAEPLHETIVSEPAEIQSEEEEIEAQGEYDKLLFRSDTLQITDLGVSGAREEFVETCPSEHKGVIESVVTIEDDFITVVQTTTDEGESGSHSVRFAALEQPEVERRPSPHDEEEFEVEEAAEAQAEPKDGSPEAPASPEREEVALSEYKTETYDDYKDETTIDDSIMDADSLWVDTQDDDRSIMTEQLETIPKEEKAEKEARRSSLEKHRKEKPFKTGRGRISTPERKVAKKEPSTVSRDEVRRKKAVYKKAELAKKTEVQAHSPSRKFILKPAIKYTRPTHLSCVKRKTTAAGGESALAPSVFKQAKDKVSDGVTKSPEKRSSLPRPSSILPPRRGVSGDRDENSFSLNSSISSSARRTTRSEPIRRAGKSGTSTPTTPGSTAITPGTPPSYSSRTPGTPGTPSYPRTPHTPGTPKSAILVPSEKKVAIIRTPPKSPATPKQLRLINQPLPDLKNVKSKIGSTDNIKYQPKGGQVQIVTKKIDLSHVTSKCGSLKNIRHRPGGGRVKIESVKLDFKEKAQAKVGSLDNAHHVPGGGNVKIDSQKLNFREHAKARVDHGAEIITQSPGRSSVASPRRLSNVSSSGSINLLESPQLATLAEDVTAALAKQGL
# T1 sequence (P15146 whole entry): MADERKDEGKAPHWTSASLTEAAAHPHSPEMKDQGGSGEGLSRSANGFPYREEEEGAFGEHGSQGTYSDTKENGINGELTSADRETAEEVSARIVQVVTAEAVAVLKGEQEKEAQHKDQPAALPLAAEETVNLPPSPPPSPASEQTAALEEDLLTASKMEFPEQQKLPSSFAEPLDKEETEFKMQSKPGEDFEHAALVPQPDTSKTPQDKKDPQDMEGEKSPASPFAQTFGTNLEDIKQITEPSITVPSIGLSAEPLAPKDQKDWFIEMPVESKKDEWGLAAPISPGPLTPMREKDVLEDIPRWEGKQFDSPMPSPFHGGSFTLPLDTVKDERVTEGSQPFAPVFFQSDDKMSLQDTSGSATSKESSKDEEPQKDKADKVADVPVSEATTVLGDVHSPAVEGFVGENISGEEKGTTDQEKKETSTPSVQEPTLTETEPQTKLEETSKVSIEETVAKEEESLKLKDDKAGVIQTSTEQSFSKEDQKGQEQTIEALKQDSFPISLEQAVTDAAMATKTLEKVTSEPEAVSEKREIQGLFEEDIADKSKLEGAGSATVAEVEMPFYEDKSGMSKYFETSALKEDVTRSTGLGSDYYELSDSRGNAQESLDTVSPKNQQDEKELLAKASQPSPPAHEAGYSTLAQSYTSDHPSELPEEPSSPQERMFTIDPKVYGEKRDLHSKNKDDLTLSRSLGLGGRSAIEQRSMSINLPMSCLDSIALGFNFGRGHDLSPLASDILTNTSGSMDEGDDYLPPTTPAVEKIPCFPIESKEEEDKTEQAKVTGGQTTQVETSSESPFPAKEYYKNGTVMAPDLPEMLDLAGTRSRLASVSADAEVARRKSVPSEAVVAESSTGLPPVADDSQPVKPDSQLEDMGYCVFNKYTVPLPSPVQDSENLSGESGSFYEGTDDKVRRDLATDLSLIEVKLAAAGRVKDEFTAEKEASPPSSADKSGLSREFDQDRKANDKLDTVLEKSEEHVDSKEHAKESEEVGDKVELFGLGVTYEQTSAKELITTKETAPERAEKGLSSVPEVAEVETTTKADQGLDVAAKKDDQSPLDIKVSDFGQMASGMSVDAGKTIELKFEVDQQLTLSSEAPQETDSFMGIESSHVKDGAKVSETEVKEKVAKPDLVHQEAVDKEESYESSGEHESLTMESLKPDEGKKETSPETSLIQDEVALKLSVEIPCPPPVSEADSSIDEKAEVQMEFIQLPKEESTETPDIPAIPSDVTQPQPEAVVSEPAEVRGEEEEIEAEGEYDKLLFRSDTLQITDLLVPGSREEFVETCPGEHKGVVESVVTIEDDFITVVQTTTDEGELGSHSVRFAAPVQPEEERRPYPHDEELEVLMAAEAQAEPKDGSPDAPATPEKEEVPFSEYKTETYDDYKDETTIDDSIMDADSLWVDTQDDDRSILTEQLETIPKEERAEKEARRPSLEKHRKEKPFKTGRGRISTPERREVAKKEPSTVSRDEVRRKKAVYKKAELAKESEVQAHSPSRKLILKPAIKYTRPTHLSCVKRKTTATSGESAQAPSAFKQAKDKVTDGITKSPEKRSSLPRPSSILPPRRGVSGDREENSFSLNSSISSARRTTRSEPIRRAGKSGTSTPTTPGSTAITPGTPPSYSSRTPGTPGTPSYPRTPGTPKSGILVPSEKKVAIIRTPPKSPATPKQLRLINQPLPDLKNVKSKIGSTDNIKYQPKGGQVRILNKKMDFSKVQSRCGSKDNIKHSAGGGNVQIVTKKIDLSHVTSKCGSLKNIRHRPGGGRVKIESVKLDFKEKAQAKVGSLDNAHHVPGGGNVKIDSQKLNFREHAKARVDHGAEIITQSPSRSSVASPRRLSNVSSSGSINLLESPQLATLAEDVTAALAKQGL
structure (smiles),measurement,setting,value
"CO[C@H]1CC[C@@]2(C)C(=CC[C@H]3[C@@H]4CC[C@H](C(C)=O)[C@@]4(C)CC[C@@H]32)C1 [3-methoxy-PREG, 3β-methoxy-pregna-5-ene-20-one]",association of MAP2 to the microtubules,[1],stimulation
same,microtubule polymerization,[2],activates microtubule polymerization
same,Lag time of microtubule polymerization,[2]; [4],decreased
same,polymerization rate and quantity of microtubules,[2]; [4],clearly increase
same,"locomotion, BBB score",[3],quite significantly higher than the control animals
same,astrocytes GFAP immunoreactivity in the injured cortex,"GFAP; day 35, 10 mg/kg or 20 mg/kg, first injection 2 hours post-trauma",highly decreased
same,astrocytes immunoreactivity in the injured thalamus,"GFAP; day 35, especially Dose2 (20 mg/kg)",strongly decreases astrocytes immunoreactivity
